Data as given in ChEMBL document CHEMBL3792317, “Novel tetrazoloquinoline-rhodanine conjugates: Highly efficient synthesis and biological evaluation” (Bioorg Med Chem Lett, 2016).
In brackets after ≈: the same amount, converted by molar mass. Activity calls are given as the source filed them. No cut-off for these calls is given here.

Legend:
[1] = system: Mycobacterium bovis BCG str. ATCC 35743; experiment: Antitubercular activity against dormant Mycobacterium bovis BCG ATCC 35743 at 30 ug/ml incubated for 40 mins by XTT Reduction Menadione Assay; assay type: functional
[2] = system: Escherichia coli; experiment: Antibacterial activity against Escherichia coli after 18 hrs by broth dilution method; assay type: functional
[3] = system: Cryptococcus neoformans; experiment: Antifungal activity against Cryptococcus neoformans NCIM 576 after 48 hrs by agar cup plate method; assay type: functional; conditions: NCIM 576, 48 h
[4] = system: Fusarium oxysporum; experiment: Antifungal activity against Fusarium oxysporum NCIM 1332 up to 200 ug/ml after 48 hrs by agar cup plate method; assay type: functional, organism-based
[5] = system: Bacillus subtilis; experiment: Antibacterial activity against Bacillus subtilis after 18 hrs by broth dilution method; assay type: functional
[6] = system: Mycobacterium tuberculosis; experiment: Antitubercular activity against Mycobacterium tuberculosis H37Ra ATCC 25177 at 30 ug/ml incubated for 40 mins by XTT Reduction Menadione Assay; assay type: functional; conditions: H37Ra ATCC 25177, 40 min, read-out: GI
[7] = system: Mycobacterium tuberculosis; experiment: Antitubercular activity against Mycobacterium tuberculosis H37Ra ATCC 25177 at 3 ug/ml incubated for 40 mins by XTT Reduction Menadione Assay; assay type: functional; conditions: H37Ra ATCC 25177, 40 min, read-out: GI
[8] = system: Aspergillus flavus; experiment: Antifungal activity against Aspergillus flavus NCIM 539 after 48 hrs by agar cup plate method; assay type: functional; conditions: NCIM 539, 48 h
[9] = system: Mycobacterium tuberculosis; experiment: Antitubercular activity against Mycobacterium tuberculosis H37Ra ATCC 25177 at 10 ug/ml incubated for 40 mins by XTT Reduction Menadione Assay; assay type: functional; conditions: H37Ra ATCC 25177, 40 min, read-out: GI
[10] = system: Mycobacterium bovis BCG str. ATCC 35743; experiment: Antitubercular activity against dormant Mycobacterium bovis BCG ATCC 35743 at 3 ug/ml incubated for 40 mins by XTT Reduction Menadione Assay; assay type: functional
[11] = system: Staphylococcus aureus; experiment: Antibacterial activity against Staphylococcus aureus after 18 hrs by broth dilution method; assay type: functional
[12] = system: Mycobacterium bovis BCG str. ATCC 35743; experiment: Antitubercular activity against dormant Mycobacterium bovis BCG ATCC 35743 at 10 ug/ml incubated for 40 mins by XTT Reduction Menadione Assay; assay type: functional
[13] = system: Mycobacterium tuberculosis; experiment: Antitubercular activity against Mycobacterium tuberculosis H37Ra ATCC 25177 incubated for 40 mins by XTT Reduction Menadione Assay; assay type: functional; conditions: H37Ra ATCC 25177, 40 min
[14] = system: Aspergillus niger; experiment: Antifungal activity against Aspergillus niger NCIM 1196 after 48 hrs by agar cup plate method; assay type: functional; conditions: NCIM 1196, 48 h
[15] = system: Pseudomonas fluorescens; experiment: Antibacterial activity against Pseudomonas fluorescens after 18 hrs by broth dilution method; assay type: functional
[16] = system: Candida albicans; experiment: Antifungal activity against Candida albicans NCIM 3471 after 48 hrs by agar cup plate method; assay type: functional; conditions: NCIM 3471, 48 h
[17] = Antitubercular activity against Mycobacterium bovis BCG ATCC 35743 incubated for 40 mins by XTT Reduction Menadione Assay; assay type: functional, Mycobacterium bovis BCG str. ATCC 35743; conditions: Mycobacterium tuberculosis variant bovis BCG, ATCC 35743, 40 min
[18] = system: Mycobacterium bovis BCG str. ATCC 35743; experiment: Antitubercular activity against dormant Mycobacterium bovis BCG ATCC 35743 incubated for 40 mins by XTT Reduction Menadione Assay; assay type: functional
[19] = system: Mycobacterium tuberculosis; experiment: Antitubercular activity against dormant Mycobacterium tuberculosis H37Ra ATCC 25177 incubated for 40 mins by XTT Reduction Menadione Assay; assay type: functional; conditions: H37Ra ATCC 25177, 40 min
[20] = system: Fusarium oxysporum; experiment: Antifungal activity against Fusarium oxysporum NCIM 1332 after 48 hrs by agar cup plate method; assay type: functional; conditions: NCIM 1332, 48 h
[21] = system: Mycobacterium tuberculosis; experiment: Antitubercular activity against active Mycobacterium tuberculosis H37Ra ATCC 25177 incubated for 40 mins by XTT Reduction Menadione Assay; assay type: functional; conditions: H37Ra ATCC 25177, 40 min
[22] = Cytotoxicity against human PANC1 cells after 48 hrs by MTT assay; assay type: cell-based, PANC-1; conditions: for GI50 at 48 h: PANC1 cells; for GI90: panc-1, 48 h
[23] = system: HeLa; experiment: (§1) Cytotoxicity against human HeLa cells after 48 hrs by MTT assay; assay type: cell-based; conditions: hela, 48 h
[24] = as §1; assay type: cell-based; conditions: HeLa cells
[25] = Cytotoxicity against human THP1 cells after 48 hrs by MTT assay; assay type: cell-based, THP-1; conditions: for GI50 at 48 h: THP1 cells; for GI90: thp-1, 48 h
[26] = system: A549; experiment: (§2) Cytotoxicity against human A549 cells after 48 hrs by MTT assay; assay type: cell-based; conditions: a549, 48 h
[27] = as §2; assay type: cell-based; conditions: A549 cells
[28] = system: Cryptococcus neoformans; experiment: Antifungal activity against Cryptococcus neoformans NCIM 576 up to 200 ug/ml after 48 hrs by agar cup plate method; assay type: functional, organism-based
[29] = Selectivity index, ratio of GI50 for human A549 cells to MIC for Mycobacterium tuberculosis H37Ra ATCC 25177; assay type: toxicity, cell-based; conditions: read-out: Selectivity Index
[30] = Selectivity index, ratio of GI50 for human A549 cells to MIC for Mycobacterium bovis BCG ATCC 35743; assay type: toxicity, cell-based; conditions: read-out: Selectivity Index
[31] = Selectivity index, ratio of GI50 for human HeLa cells to MIC for Mycobacterium bovis BCG ATCC 35743; assay type: toxicity, cell-based; conditions: read-out: Selectivity Index
[32] = Selectivity index, ratio of GI50 for human THP1 cells to MIC for Mycobacterium bovis BCG ATCC 35743; assay type: toxicity, cell-based, THP-1; conditions: read-out: Selectivity Index
[33] = Selectivity index, ratio of GI50 for human PANC1 cells to MIC for Mycobacterium bovis BCG ATCC 35743; assay type: toxicity, cell-based, PANC-1; conditions: read-out: Selectivity Index
[34] = Selectivity index, ratio of GI50 for human PANC1 cells to MIC for Mycobacterium tuberculosis H37Ra ATCC 25177; assay type: toxicity, cell-based, PANC-1; conditions: read-out: Selectivity Index
[35] = Selectivity index, ratio of GI50 for human HeLa cells to MIC for Mycobacterium tuberculosis H37Ra ATCC 25177; assay type: toxicity, cell-based; conditions: read-out: Selectivity Index
[36] = Selectivity index, ratio of GI50 for human THP1 cells to MIC for Mycobacterium tuberculosis H37Ra ATCC 25177; assay type: toxicity, cell-based, THP-1; conditions: read-out: Selectivity Index

| SMILES | growth inhibition (GI) [1] | MIC [3] | MIC [4] | inhibition of growth at 30 µg/mL [6] | inhibition of growth at 3 µg/mL [7] | MIC [8] | inhibition of growth at 10 µg/mL [9] | growth inhibition (GI) [10] | growth inhibition (GI) [12] | MIC [13] | MIC [14] | MIC [16] | MIC [17] | IC90 [19] | MIC [20] | IC90 [21] | GI50 at 48 h [22] | GI90 [22] | GI90 [23] | GI50 at 48 h [24] | also measured |
| --- | --- | --- | --- | --- | --- | --- | --- | --- | --- | --- | --- | --- | --- | --- | --- | --- | --- | --- | --- | --- | --- |
| COc1ccc2c(c1)cc(/C=C1\SC(=S)NC1=O)c1nnnn12 | 32.5% | 150 µg/mL (≈ 437 µM) | inactive | -5.72% | 18.9% | 150 µg/mL (≈ 437 µM) | 17.6% | 12.5% | 17.1% | > 250 µg/mL | 100 µg/mL (≈ 291 µM) | 150 µg/mL (≈ 437 µM) | > 250 µg/mL |  |  |  |  |  |  |  | MIC [2]: 198 µg/mL (≈ 577 µM); MIC [5]: 96.8 µg/mL (≈ 282 µM); MIC [11]: 144 µg/mL (≈ 419 µM); MIC [15]: 169 µg/mL (≈ 493 µM) |
| Cc1ccc2cc(/C=C3\SC(=S)N(CCC(=O)O)C3=O)c3nnnn3c2c1 | 41.2% | 50 µg/mL (≈ 125 µM) |  | 60.3% | 16.6% | 50 µg/mL (≈ 125 µM) | 30% | 4.55% | 12.3% | 42.2 µg/mL (≈ 106 µM) | 100 µg/mL (≈ 250 µM) | 25 µg/mL (≈ 62.6 µM) | 45.4 µg/mL (≈ 114 µM) | 42.2 µg/mL (≈ 106 µM) | 50 µg/mL (≈ 125 µM) | 45 µg/mL (≈ 113 µM) | > 100 µg/mL | > 100 µg/mL | > 100 µg/mL | > 100 µg/mL | IC90 [18]: 45.4 µg/mL (≈ 114 µM); GI50 at 48 h [25]: > 100 µg/mL; GI90 [25]: > 100 µg/mL; GI90 [26]: > 100 µg/mL; GI50 at 48 h [27]: > 100 µg/mL |
| COc1ccc2c(c1)cc(/C=C1\SC(=S)N(CCC(=O)O)C1=O)c1nnnn12 | 23.9% |  |  | 15.9% | -0.42% | 150 µg/mL (≈ 361 µM) | 27.9% | 8.94% | 16% | > 250 µg/mL | 150 µg/mL (≈ 361 µM) | 150 µg/mL (≈ 361 µM) | > 250 µg/mL |  | 125 µg/mL (≈ 301 µM) |  |  |  |  |  | MIC [28]: inactive |
| COc1ccc2cc(/C=C3\SC(=S)N(CC(=O)O)C3=O)c3nnnn3c2c1 | 25.6% | 175 µg/mL (≈ 436 µM) | inactive | 97.2% | 3.59% | 150 µg/mL (≈ 374 µM) | 13.6% | 12.7% | 37.3% | 92.3 µg/mL (≈ 230 µM) | 150 µg/mL (≈ 374 µM) | 100 µg/mL (≈ 249 µM) | 121 µg/mL (≈ 302 µM) | 92.3 µg/mL (≈ 230 µM) |  | 159 µg/mL (≈ 396 µM) | > 100 µg/mL | > 100 µg/mL | > 100 µg/mL | > 100 µg/mL | selectivity ratio [29]: 1.1; selectivity ratio [30]: 4.13; selectivity ratio [31]: 4.13; selectivity ratio [32]: 4.13; selectivity ratio [33]: 4.13; selectivity ratio [34]: 1.1; selectivity ratio [35]: 1.1; GI50 at 48 h [25]: > 100 µg/mL; GI90 [25]: > 100 µg/mL; selectivity ratio [36]: 1.1; GI90 [26]: > 100 µg/mL; GI50 at 48 h [27]: > 100 µg/mL |
